Where “and” joins values, the source holds several entries; their conditions need not be identical. Equal entries are not always repeated.
Experiments:
T lymphoma Jurkat cells = assay: Cytotoxicity assay (CellTiter-Glo, 72 h), Jurkat; type: cell-based; settings: raw data (replicates)
Procedure, shortened: (§1)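 Luminescent ATP read-out (CellTiter-Glo) quantified surviving cells after a 72 h incubation with 2-fold diluted compounds in 0.5% DMSO, added 4 h post-seeding at 1000 cells/well.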

[1] = Cytotoxicity assay (CellTiter-Glo, 72 h), Jurkat; type: cell-based; settings: human, Jurkat cells (T lymphoma)
Procedure, shortened: as §1

[2] = Cytotoxicity assay (CellTiter-Glo, 72 h), SKOV-3; type: cell-based, human; settings: human
Procedure, shortened: as §1

With COC1CC2CCC(C)C(O)(O2)C(=O)C(=O)N2CCCCC2C(=O)OC(C(C)CC2CCC(O)C(OC)C2)CCC(C)C=C(C)C(O)C(OC)C(=O)C(C)CC(C)C=CC=CC=C1C (stereo not shown) [Compound 16, 32-desketorapamycin] the “Jurkat viability (%)” value (T lymphoma Jurkat cells; conc 9.53674e-5 uM) was 101.4% and 98.2%, the “Jurkat viability (%)” value (T lymphoma Jurkat cells; conc 0.000190735 uM) was 92.4% and 84.6% and the “Jurkat viability (%)” value (T lymphoma Jurkat cells; conc 0.00038147 uM) was 90.4% and 75.5%. For the same compound, the “Jurkat viability (%)” value (T lymphoma Jurkat cells; conc 0.000762939 uM) was 69.2% and 63.8%, the “Jurkat viability (%)” value (T lymphoma Jurkat cells; conc 0.00152588 uM) was 59.9% and 53.6% and the “Jurkat viability (%)” value (T lymphoma Jurkat cells; conc 0.00305176 uM) was 41.7% and 44.0%. The “Jurkat viability (%)” value (T lymphoma Jurkat cells; conc 0.00610352 uM) was 34.2% and 31.7%, the “Jurkat viability (%)” value (T lymphoma Jurkat cells; conc 0.012207 uM) was 27.6% and 27.9% and the “Jurkat viability (%)” value (T lymphoma Jurkat cells; conc 0.0244141 uM) was 27.8% and 26.9%. For the same compound, the “Jurkat viability (%)” value (T lymphoma Jurkat cells; conc 0.0488281 uM) was 23.6% and 25.9%, the “Jurkat viability (%)” value (T lymphoma Jurkat cells; conc 0.0976562 uM) was 24.4% and the “Jurkat viability (%)” value (T lymphoma Jurkat cells; conc 0.195312 uM) was 26.3% and 22.8%. The “Jurkat viability (%)” value (T lymphoma Jurkat cells; conc 0.390625 uM) was 23.3%, the “Jurkat viability (%)” value (T lymphoma Jurkat cells; conc 0.78125 uM) was 22.7% and 23.1% and the “Jurkat viability (%)” value (T lymphoma Jurkat cells; conc 1.5625 uM) was 22.0%. For the same compound, the “Jurkat viability (%)” value (T lymphoma Jurkat cells; conc 3.125 uM) was 23.1% and 21.1%, the “Jurkat viability (%)” value (T lymphoma Jurkat cells; conc 6.25 uM) was 20.5% and 21.0% and the “Jurkat viability (%)” value (T lymphoma Jurkat cells; conc 12.5 uM) was 14.7% and 14.4%. The “Jurkat viability (%)” value (T lymphoma Jurkat cells; conc 25 uM) was 2.4% and 2.3%, the “Jurkat viability (%)” value (T lymphoma Jurkat cells; conc 50 uM) was 0.267% and 0.233% and the viability at 72 h ([1]; 72 h, read-out: Plateau level of cell viability in the dose-response curve) was roughly 25%. It also gave a viability at 72 h, 9.53674e-05 uM ([1]; conc 9.53674e-5 uM, raw data (replicates)) of 104%, a viability at 72 h, 0.000190735 uM ([1]; conc 0.000190735 uM, raw data (replicates)) of 86.9% and a viability at 72 h, 0.00038147 uM ([1]; conc 0.00038147 uM, raw data (replicates)) of 91.3%. The viability at 72 h, 0.000762939 uM ([1]; conc 0.000762939 uM, raw data (replicates)) was 67.7%, the viability at 72 h, 0.00152588 uM ([1]; conc 0.00152588 uM, raw data (replicates)) was 56.5% and the viability at 72 h, 0.00305176 uM ([1]; conc 0.00305176 uM, raw data (replicates)) was 40.9%. It also gave a viability at 72 h, 0.00610352 uM ([1]; conc 0.00610352 uM, raw data (replicates)) of 34.9%, a viability at 72 h, 0.012207 uM ([1]; conc 0.012207 uM, raw data (replicates)) of 28.9% and a viability at 72 h, 0.0244141 uM ([1]; conc 0.0244141 uM, raw data (replicates)) of 30.6%. The viability at 72 h, 0.0488281 uM ([1]; conc 0.0488281 uM, raw data (replicates)) was 25.7%, the viability at 72 h, 0.0976562 uM ([1]; conc 0.0976562 uM, raw data (replicates)) was 24% and the viability at 72 h, 0.195312 uM ([1]; conc 0.195312 uM, raw data (replicates)) was 24.3%. The viability at 72 h, 0.390625 uM ([1]; conc 0.390625 uM, raw data (replicates)) was 25.2%, the viability at 72 h, 0.78125 uM ([1]; conc 0.78125 uM, raw data (replicates)) was 22.1% and the viability at 72 h, 1.5625 uM ([1]; conc 1.5625 uM, raw data (replicates)) was 21.9%. The viability at 72 h, 3.125 uM ([1]; conc 3.125 uM, raw data (replicates)) was 20.3%, the viability at 72 h, 6.25 uM ([1]; conc 6.25 uM, raw data (replicates)) was 20.4% and the viability at 72 h, 12.5 uM ([1]; conc 12.5 uM, raw data (replicates)) was 11.9%. It also gave a viability at 72 h, 25 uM ([1]; conc 25 uM, raw data (replicates)) of 2%, a viability at 72 h, 50 uM ([1]; conc 50 uM, raw data (replicates)) of 0.248% and a viability at 72 h ([2]; SKOV-3 cells (ovarian adenocarcinoma), SKOV-3 cells, 72 h, read-out: Plateau level of cell viability in the dose-response curve) of roughly 60%. The viability at 72 h, 9.53674e-05 uM ([2]; SKOV-3 cells (ovarian adenocarcinoma), conc 9.53674e-5 uM, raw replicate data, read-out: SKOV3 viability (%)) was 102%, the viability at 72 h, 0.000190735 uM ([2]; SKOV-3 cells (ovarian adenocarcinoma), conc 0.000190735 uM, raw replicate data, read-out: SKOV3 viability (%)) was 96.2% and the viability at 72 h, 0.00038147 uM ([2]; SKOV-3 cells (ovarian adenocarcinoma), conc 0.00038147 uM, raw replicate data, read-out: SKOV3 viability (%)) was 97.4%. The viability at 72 h, 0.000762939 uM ([2]; SKOV-3 cells (ovarian adenocarcinoma), conc 0.000762939 uM, raw replicate data, read-out: SKOV3 viability (%)) was 84.9%, the viability at 72 h, 0.00152588 uM ([2]; SKOV-3 cells (ovarian adenocarcinoma), conc 0.00152588 uM, raw replicate data, read-out: SKOV3 viability (%)) was 77.3% and the viability at 72 h, 0.00305176 uM ([2]; SKOV-3 cells (ovarian adenocarcinoma), conc 0.00305176 uM, raw replicate data, read-out: SKOV3 viability (%)) was 68.9%. The viability at 72 h, 0.00610352 uM ([2]; SKOV-3 cells (ovarian adenocarcinoma), conc 0.00610352 uM, raw replicate data, read-out: SKOV3 viability (%)) was 59%, the viability at 72 h, 0.012207 uM ([2]; SKOV-3 cells (ovarian adenocarcinoma), conc 0.012207 uM, raw replicate data, read-out: SKOV3 viability (%)) was 61.7% and the viability at 72 h, 0.0244141 uM ([2]; SKOV-3 cells (ovarian adenocarcinoma), conc 0.0244141 uM, raw replicate data, read-out: SKOV3 viability (%)) was 60%. The viability at 72 h, 0.0488281 uM ([2]; SKOV-3 cells (ovarian adenocarcinoma), conc 0.0488281 uM, raw replicate data, read-out: SKOV3 viability (%)) was 59.3%, the viability at 72 h, 0.0976562 uM ([2]; SKOV-3 cells (ovarian adenocarcinoma), conc 0.0976562 uM, raw replicate data, read-out: SKOV3 viability (%)) was 58.2% and the viability at 72 h, 0.195312 uM ([2]; SKOV-3 cells (ovarian adenocarcinoma), conc 0.195312 uM, raw replicate data, read-out: SKOV3 viability (%)) was 56.3%. The viability at 72 h, 0.390625 uM ([2]; SKOV-3 cells (ovarian adenocarcinoma), conc 0.390625 uM, raw replicate data, read-out: SKOV3 viability (%)) was 55.6%, the viability at 72 h, 12.5 uM ([2]; SKOV-3 cells (ovarian adenocarcinoma), conc 12.5 uM, raw replicate data, read-out: SKOV3 viability (%)) was 51.2% and the viability at 72 h, 25 uM ([2]; SKOV-3 cells (ovarian adenocarcinoma), conc 25 uM, raw replicate data, read-out: SKOV3 viability (%)) was 45.3%. For the same compound, the viability at 72 h, 50 uM ([2]; SKOV-3 cells (ovarian adenocarcinoma), conc 50 uM, raw replicate data, read-out: SKOV3 viability (%)) was 39.9%, the viability at 72 h, 0.78125 uM ([2]; SKOV-3 ovarian adenocarcinoma cells, conc 0.78125 uM, raw replicate data, read-out: SKOV3 viability (%)) was 57.3% and the viability at 72 h, 1.5625 uM ([2]; SKOV-3 ovarian adenocarcinoma cells, conc 1.5625 uM, raw replicate data, read-out: SKOV3 viability (%)) was 55%. The viability at 72 h, 3.125 uM ([2]; SKOV-3 ovarian adenocarcinoma cells, conc 3.125 uM, raw replicate data, read-out: SKOV3 viability (%)) was 57.8%.
